Source: PubChem BioAssay AID248 (DTP/NCI, 2004)
Where “and” joins values, the source holds several entries; their conditions need not be identical. Identical values can stand only once. Toxic doses and inconclusive results are not listed. No stated cut-off is given here; in the data, active means T/C of 150% or more; inactive means T/C below 125%.

Test system: L1210 leukemia ip in BDF1 mice, survival T/C
Assay: NCI In Vivo Anticancer Drug Screen. Data for tumor model L1210 Leukemia (intraperitoneal) in B6D2F1 (BDF1) mice
Details: endpoint: mean survival time, higher = longer survival
Procedure, shortened: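 Value reflects the ratio of survival in compound-treated mice to survival in vehicle-treated controls, with both groups carrying the same transplanted tumor.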

[1] = dose: 50.0 mg/kg/injection, schedule: Q01DX001 (ip), vehicle: saline
[2] = dose: 100.0 mg/kg/injection, schedule: Q01DX001 (ip), vehicle: other
[3] = dose: 100.0 mg/kg/injection, schedule: Q01DX001 (ip), vehicle: saline
[4] = dose: 100.0 mg/kg/injection, schedule: Q01DX009 (ip), vehicle: saline
[5] = dose: 200.0 mg/kg/injection, schedule: Q01DX001 (ip), vehicle: other
[6] = dose: 200.0 mg/kg/injection, schedule: Q01DX001 (ip), vehicle: saline
[7] = dose: 400.0 mg/kg/injection, schedule: Q01DX001 (ip), vehicle: other
[8] = dose: 400.0 mg/kg/injection, schedule: Q01DX001 (ip), vehicle: saline
[9] = dose: 100.0 mg/kg/injection, schedule: Q04DX002 (ip), vehicle: saline
[10] = dose: 200.0 mg/kg/injection, schedule: Q04DX002 (ip), vehicle: saline
[11] = dose: 100.0 mg/kg/injection, schedule: Q01DX009 (ip), vehicle: Klucel (hydroxypropylcellulose) (HPC)
[12] = dose: 100.0 mg/kg/injection, schedule: Q04DX003 (ip), vehicle: Klucel (hydroxypropylcellulose) (HPC)
[13] = dose: 200.0 mg/kg/injection, schedule: Q04DX003 (ip), vehicle: Klucel (hydroxypropylcellulose) (HPC)
[14] = dose: 400.0 mg/kg/injection, schedule: Q04DX003 (ip), vehicle: Klucel (hydroxypropylcellulose) (HPC)
[15] = dose: 200.0 mg/kg/injection, schedule: Q01DX009 (ip), vehicle: Klucel (hydroxypropylcellulose) (HPC)
[16] = dose: 400.0 mg/kg/injection, schedule: Q01DX009 (ip), vehicle: Klucel (hydroxypropylcellulose) (HPC)
[17] = dose: 75.0 mg/kg/injection, schedule: Q01DX001 (ip), vehicle: saline

Measured: T/C

Nc1nc2c(ncn2-c2ccccc2Cl)c(=O)[nH]1
inactive: dose: 100.0 mg/kg/injection, schedule: Q01DX001 (ip), vehicle: saline with Tween-80 95 % of control | dose: 200.0 mg/kg/injection, schedule: Q01DX001 (ip), vehicle: saline with Tween-80 92 % of control | dose: 400.0 mg/kg/injection, schedule: Q01DX001 (ip), vehicle: saline with Tween-80 100 % of control

N=C(N[N+](=O)[O-])N(CCC(=O)O)N=O
inactive: [1] 100 % of control | dose: 50.0 mg/kg/injection, schedule: Q01DX009 (ip), vehicle: saline 90 % of control | dose: 53.0 mg/kg/injection, schedule: Q01DX015 (ip), vehicle: saline 113 % of control | dose: 79.0 mg/kg/injection, schedule: Q01DX015 (ip), vehicle: saline 124 % of control | [2] 97 % of control | [3] 107 % of control | dose: 100.0 mg/kg/injection, schedule: Q01DX009 (ip), vehicle: other 103 % of control | [4] 96 % of control | dose: 100.0 mg/kg/injection, schedule: Q04DX003 (ip), vehicle: saline 96 % of control | dose: 178.0 mg/kg/injection, schedule: Q01DX001 (ip), vehicle: saline 109 % of control and 122 % of control | dose: 178.0 mg/kg/injection, schedule: Q01DX015 (ip), vehicle: saline 116 % of control | [5] 101 % of control | [6] 113 % of control | dose: 200.0 mg/kg/injection, schedule: Q01DX009 (ip), vehicle: other 98 % of control | dose: 200.0 mg/kg/injection, schedule: Q01DX009 (ip), vehicle: saline 104 % of control | dose: 200.0 mg/kg/injection, schedule: Q04DX003 (ip), vehicle: saline 98 % of control | dose: 267.0 mg/kg/injection, schedule: Q01DX001 (ip), vehicle: saline 112 % of control and 121 % of control | [7] 100 % of control | dose: 400.0 mg/kg/injection, schedule: Q01DX009 (ip), vehicle: other 98 % of control | dose: 400.0 mg/kg/injection, schedule: Q01DX009 (ip), vehicle: saline 100 % of control | dose: 400.0 mg/kg/injection, schedule: Q04DX003 (ip), vehicle: saline 91 % of control | dose: 600.0 mg/kg/injection, schedule: Q01DX001 (ip), vehicle: other 94 % of control | dose: 800.0 mg/kg/injection, schedule: Q01DX001 (ip), vehicle: other 92 % of control | dose: 800.0 mg/kg/injection, schedule: Q01DX001 (ip), vehicle: saline 86 % of control

N#Cc1cc[n+](Cc2ccc([N+](=O)[O-])cc2)cc1
inactive: [3] 104 % of control | [6] 98 % of control

COC(=O)CC(c1ccccc1)N1CCCC1 (centres undefined)
inactive: [3] 98 % of control | [6] 104 % of control | [8] 108 % of control

Cc1cc(C(C)(C)C)cc(O)c1O
inactive: [2] 113 % of control | [5] 93 % of control | [7] 93 % of control

COC(=O)C1CCC(=O)CC1
inactive: [9] 96 % of control | [10] 101 % of control | dose: 400.0 mg/kg/injection, schedule: Q04DX002 (ip), vehicle: saline 99 % of control

Oc1c(CNCCCN2CCCC2)cc(Cl)c2cccnc12
inactive: [9] 97 % of control | [10] 97 % of control

CC(C)C1C(C(=O)O)NC(=O)C1C(=O)O (centres undefined)
inactive: dose: 12.0 mg/kg/injection, schedule: Q01DX009 (ip), vehicle: saline with Tween-80 106 % of control | dose: 25.0 mg/kg/injection, schedule: Q01DX009 (ip), vehicle: Klucel (hydroxypropylcellulose) (HPC) 106 % of control | dose: 25.0 mg/kg/injection, schedule: Q01DX009 (ip), vehicle: saline with Tween-80 99 % of control | dose: 50.0 mg/kg/injection, schedule: Q01DX009 (ip), vehicle: saline with Tween-80 97 % of control | [11] 108 % of control | [12] 96 % of control | [13] 98 % of control | [14] 95 % of control

COc1ccc(O)c(CCCO)c1
inactive: [1] 104 % of control | [3] 95 % of control | [6] 112 % of control | [8] 95 % of control

O=C(O)CCC(NC(=O)c1ccc(Cc2ccc(NC(=O)OCc3ccccc3)cc2)cc1)C(=O)O (centres undefined)
inactive: [11] 96 % of control | [12] 97 % of control | [15] 95 % of control | [13] 94 % of control | [16] 93 % of control | [14] 103 % of control

COc1cccc(/C=C/[N+](=O)[O-])c1OCc1ccccc1
inactive: dose: 12.5 mg/kg/injection, schedule: Q04DX003 (ip), vehicle: saline with Tween-80 117 % of control | dose: 25.0 mg/kg/injection, schedule: Q04DX003 (ip), vehicle: saline with Tween-80 95 % of control | dose: 50.0 mg/kg/injection, schedule: Q04DX003 (ip), vehicle: saline with Tween-80 111 % of control

CC(C)c1ccc(C(=O)C(O)c2ccc(C(C)C)cc2)cc1 (centres undefined)
inactive: dose: 100.0 mg/kg/injection, schedule: Q01DX009 (ip), vehicle: saline with Tween-80 93 % of control | dose: 200.0 mg/kg/injection, schedule: Q01DX009 (ip), vehicle: saline with Tween-80 97 % of control | dose: 400.0 mg/kg/injection, schedule: Q01DX009 (ip), vehicle: saline with Tween-80 97 % of control

CCOC(=O)/C(C#N)=C(\C)CC(C)C
inactive: dose: 5.0 mg/kg/injection, schedule: Q01DX001 (ip), vehicle: saline 101 % of control | dose: 10.0 mg/kg/injection, schedule: Q01DX001 (ip), vehicle: saline 95 % of control | dose: 20.0 mg/kg/injection, schedule: Q01DX001 (ip), vehicle: saline 95 % of control | dose: 40.0 mg/kg/injection, schedule: Q01DX001 (ip), vehicle: saline 98 % of control | dose: 80.0 mg/kg/injection, schedule: Q01DX001 (ip), vehicle: saline 101 % of control | [3] 98 % of control

CSc1nsc(SC)c1C#N
inactive: [11] 103 % of control | [15] 97 % of control | [16] 92 % of control

COC1OC(CCl)C(OS(C)(=O)=O)C(OC(=O)c2ccccc2)C1OC(=O)c1ccccc1 (centres undefined)
inactive: dose: 25.0 mg/kg/injection, schedule: Q04DX002 (ip), vehicle: Klucel (hydroxypropylcellulose) (HPC) 102 % of control | dose: 50.0 mg/kg/injection, schedule: Q04DX002 (ip), vehicle: Klucel (hydroxypropylcellulose) (HPC) 97 % of control | dose: 100.0 mg/kg/injection, schedule: Q04DX002 (ip), vehicle: Klucel (hydroxypropylcellulose) (HPC) 102 % of control

CC1C(=O)OC2C1CCC1(C)C3(C)C(=O)C=CC213 (centres undefined)
inactive: [17] 97 % of control | dose: 150.0 mg/kg/injection, schedule: Q01DX001 (ip), vehicle: saline 106 % of control | dose: 300.0 mg/kg/injection, schedule: Q01DX001 (ip), vehicle: saline 95 % of control

O=C(Nc1ccccc1)OCCc1c2ccccc2[n+]([O-])c2ccccc12
inactive: dose: 100.0 mg/kg/injection, schedule: Q04DX003 (ip), vehicle: saline with Tween-80 91 % of control | dose: 200.0 mg/kg/injection, schedule: Q04DX003 (ip), vehicle: saline with Tween-80 91 % of control | dose: 400.0 mg/kg/injection, schedule: Q04DX003 (ip), vehicle: saline with Tween-80 102 % of control

C[n+]1cc(-c2ccccc2)cc2ccccc21
inactive: [17] 97 % of control

CC(C)c1ccc(/C=N/NC(=O)c2ccncc2)cc1
inactive: [4] 100 % of control
